# “Also recorded” adds a separate entry of the source.
# Key:
# [1] = system: rat experimental apical periodontitis; assay: Rat apical periodontitis model: size of apical lesions by micro-CT; format: in vivo; settings: male Wistar rats, 150 mg/kg orally twice per day
# Procedure: Using a rat apical periodontitis model, pharmacological tests were conducted for monosodium (2S,3S)-3-[[(1S)-1-isobutozymethyl-3-methylbutyl]-carbamoyl]oxirane-2-carboxylate.
# (§1) An experiment was conducted using six-week-old male Wistar rats. After the pulp of the mandibular first molar was exposed using a round bar, apical periodontitis was induced by extracting the pulp and opening it inside the oral cavity. In the experimental groups, monosodium (2S,3S)-3-[[(1S)-1-isobutozymethyl-3-methylbutyl]-carbamoyl]oxirane-2-carboxylate (compound A: 150 mg/kg) was orally administered twice per day. A non-administration group was used as a control. After 21 days, the rats were euthanized and the jawbone surrounding each mandibular molar was extracted. The left side was fixed in 4% paraformaldehyde/phosphate buffer solution (PBS) (4° C., 12 hours), and then the size of the apical lesion was measured by micro-CT imaging (Shimadzu SMX-90CT). […] On the right side, the lesion portion surrounding the apex was extracted as a lump together with the apex, and after RNA extraction (Qiagen: RNeasy Lipid Tissue Mini Kit), cDNA was created by ordinary methods (Invitrogen: Superscript III), and the levels of expression of inflammatory cytokines (IL-1α and IL-6) were measured by real-time PCR (BioRad: DNA Engine Opticon 2; Invitrogen: Platinum SYBR Green qPCR SuperMix).
# [2] = system: osteoclasts on the alveolar bone surrounding the apex; assay: Rat apical periodontitis model: histological examination (HE and TRAP staining) of osteoclasts; format: in vivo; settings: male Wistar rats, 150 mg/kg orally twice per day, after 21 days, vs control group
# Procedure: as §1, with “SMX-90CT). After that, it was decalcified with 15% EDTA solution and embedded in OCT compound, and frozen slices 7 μm thick were made.” for “SMX-90CT).”
# IL-1α = assay: Rat apical periodontitis model: level of expression of IL-1α in the lesions by real-time PCR; format: in vivo; settings: male Wistar rats, 150 mg/kg orally twice per day, after 21 days, vs control group
# Procedure: as §1, with “SMX-90CT). After that, it was decalcified with 15% EDTA solution and embedded in OCT compound, and frozen slices 7 μm thick were made.” for “SMX-90CT).”
# IL-6 = assay: Rat apical periodontitis model: level of expression of IL-6 in the lesions by real-time PCR; format: in vivo; settings: male Wistar rats, 150 mg/kg orally twice per day, after 21 days, vs control group
# Procedure: as §1, with “SMX-90CT). After that, it was decalcified with 15% EDTA solution and embedded in OCT compound, and frozen slices 7 μm thick were made.” for “SMX-90CT).”
# cathepsin K = molecular target: T1, cathepsin K (Homo sapiens, UniProt P43235); settings: known from Patent Reference 4 (WO 99/11640); cited from earlier work
# T1 sequence (P43235 115-329): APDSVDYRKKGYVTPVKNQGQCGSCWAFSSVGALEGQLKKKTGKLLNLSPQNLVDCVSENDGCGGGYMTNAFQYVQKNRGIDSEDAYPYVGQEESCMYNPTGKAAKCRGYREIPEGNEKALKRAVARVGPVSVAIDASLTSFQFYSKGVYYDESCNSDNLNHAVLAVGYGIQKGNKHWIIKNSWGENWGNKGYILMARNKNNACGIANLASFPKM
smiles,measurement,setting,value
"CC(C)COC[C@H](CC(C)C)NC(=O)[C@H]1O[C@@H]1C(=O)[O-].[Na+] [compound A, monosodium (2S,3S)-3-[[(1S)-1-isobutozymethyl-3-methylbutyl]-carbamoyl]oxirane-2-carboxylate]",suppressive effect against progression of rat experimental apical periodontitis,[1]; 21 days,excellent suppressive effect
same,size of apical lesions by micro-CT,"[1]; after 21 days, vs control group, 150 mg/kg",smaller apical lesions were formed; also recorded: their size was smaller than in the control group
same,number of osteoclasts on the alveolar bone surrounding the apex (histological examination),[2],their number tended to be small
same,level of expression of IL-1α in the lesions,IL-1α,significantly suppressed
same,level of expression of IL-6 in the lesions,IL-6,significantly suppressed
same,cathepsin K inhibiting action,cathepsin K,has a cathepsin K inhibiting action

# — patent publication US20130018094A1, “Prophylactic or Therapeutic Agent For Gum Disease or Apical Periodontitis” (priority 2009, published 2013)
